Measurements: patent publication US20230321106A1, “USE OF TOPICAL BRAF INHIBITOR COMPOSITIONS FOR TREATMENT OF EPIDERMAL GROWTH FACTOR RECEPTOR DOWNSTREAM EFFECTORS - INDUCED CUTANEOUS REACTIONS” (Lutris Pharma Ltd., priority 2020, published 2023)

Tested on: phosphorylated ERK1/2 (MAPK pathway) in HKGS-activated HEKa cells
Assay: Reversal of EGFR inhibitor-mediated pERK inhibition in HKGS-activated HEKa cells, Western blot
Format: cell-based, human
Conditions: HKGS plus erlotinib 10 μM, two hours
Protocol: Primary HEKa, isolated from adult skin of a single donor and cryopreserved at the end of primary culture (Gibco catalog number C0055C, Thermo Fisher Scientific, Waltham, MA), were cultured in T25 flasks at 37° C., 5% CO2 in growth medium (Epilife™ CF Kit, Gibco) supplemented with 60 μM calcium (Gibco) and HKGS (Gibco). After at least three passages, cells were harvested with trypsin when flask reached 70-80% confluence, and seeded in 10 cm culture dishes (250,000 cells/dish) in 9 ml of growth medium overnight. To analyze the effect of HKGS or a BRAF inhibitor on pERK, cells were starved for 2.5 hours in 5 mL of starvation medium without HKGS, and then individual plates were incubated for two hours with DMSO 0.1%, HKGS, vemurafenib 0.3 μM (0.146 μg/mL), or LUT014 0.3 μM (0.158 μg/mL). […] Cells were harvested with 1 ml cold PBS containing EDTA-free, phosphatase inhibitor cocktail (MilliporeSigma, Burlington, MA) using a cell scraper. […] The signals of phosphorylated ERK1/2 and total ERK2 were quantified using ImageJ software and the phosphorylated ERK1/2/total ERK2 ratio was calculated. For the quantification, equal sized rectangles were drawn around the bands of the phosphorylated ERK1/2 and the total ERK2 and the pixels in each rectangle were measured.

C#Cc1cccc(Nc2ncnc3cc(OCCOC)c(OCCOC)cc23)c1 [erlotinib, reference compound]
HKGS stimulation of the MAPK pathway (pERK): partially inhibited
